Square brackets hold non-standard residues; d marks the D form. Ends that are not written are not given here. PEG2 = NCCOCCOCCC(=O)O
How the values were obtained:
[1] = system: Pseudomonas aeruginosa ATCC 27853; test: In vitro bactericidal assay, P. aeruginosa ATCC 27853 (FIGS. 12-14); type: cell-based; settings: FIG. 14; pH 5.5; 180 minutes; even at the lower concentration (75 μg/ml)
Procedure: (§1) Each of the test peptides was used at 25, 12.5 6.25, and 3.12 μM. The gentamicin was used at 4 μg/ml. 1×10^6/ml Pseudomonas aeruginosa ATCC® 27853™ (American Type Culture Collection, Manassas, Va.) were incubated with the peptides, negative buffer control (tryptone saline), and positive control gentamicin for 180 minutes at pH 7.2. 50 μl aliquots were plated out on agar plates and incubated overnight. Colony forming units were counted after overnight incubation and CFU/ml calculated.
as §1, with “12.5,” for “12.5”, “5.5.” for “7.2.”
FIG. 14 is a comparison of bactericidal activity of CAP37 peptides 120-146WR (SEQ ID NO:30), 120-146WH (SEQ ID NO:31), 120-146QR (SEQ ID NO:28), 120-146QH (SEQ ID NO:29), 120-146QR-5RMP (SEQ ID NO:32), and 120-146QH-5RMP (SEQ ID NO:33) for Pseudomonas aeruginosa ATCC® 27853™ (American Type Culture Collection, Manassas, Va.). 1×10^6/ml Pseudomonas aeruginosa ATCC® 27853™ were incubated with the peptides at 150, 75, and 37.5 μg/ml and negative buffer control (tryptone saline) for 180 minutes at pH 5.5. 50 μl aliquots were plated out on agar plates and incubated overnight. Colony forming units were counted after overnight incubation and CFU/ml calculated.
For FIGS. 10-13, in vitro bactericidal assays were performed using a starting inoculum of 1×10^6 CFU/ml of the bacterial suspension. The CFU remaining at the end of the 60-180 minute incubation was determined, and the data was plotted as log reduction in CFU/ml.
In particular, each of the test peptides (CAP37 peptides 120-146WR, 120-146WH, and 95-122 (SEQ ID NOS:30, 31, and 26, respectively)) was used at 25, 12.5, 6.25, and 3.12 μM. Gentamicin was used at 4 μg/ml. 1×10^6/ml Acinetobacter baumannii ATCC® BAA-747™ or Pseudomonas aeruginosa ATCC® 27853™ (American Type Culture Collection, Manassas, Va.) were incubated with the peptides, negative buffer control (tryptone saline), and positive control gentamicin at pH 5.5 or 7.2. A 60 minute incubation was used for Acinetobacter baumannii ATCC® BAA-747™, while a 180 minute incubation was used for Pseudomonas aeruginosa ATCC® 27853™. 50 μl aliquots were plated out on agar plates and incubated overnight. Colony forming units were counted after overnight incubation and CFU/ml calculated.
For FIG. 14, 1×10^6/ml Pseudomonas aeruginosa ATCC® 27853™ were incubated with each of the test peptides (CAP37 peptides 120-146WR, 120-146WH, 120-146QR, 120-146QH, 120-146QR-5RMP, and 120-146QH-5RMP (SEQ ID NOS:30, 31, 28, 29, 32, and 33, respectively)) at 150, 75, and 37.5 μg/ml, or negative buffer control (tryptone saline), for 180 minutes at pH 5.5. 50 μl aliquots were plated out on agar plates and incubated overnight. Colony forming units were counted after overnight incubation and CFU/ml calculated.

[2] = system: P. aeruginosa (ATCC 27853); test: Mouse model of Pseudomonas (bacterial) keratitis; type: in vivo
Procedure: A circular wound was created on the mouse cornea by removing the epithelium and infected with 10^5 colony forming units (CFU) of P. aeruginosa (ATCC® 27853™ (American Type Culture Collection, Manassas, Va.)). Infected wounds were treated with saline (0.9% sodium chloride, vehicle control) or saline containing indicated concentrations of peptide every 15 minutes for 2 hours, then every 30 minutes for 3 hours on the first day. Infected wounds were treated twice on the second day and once on the third day. Mice were killed at 48 hours post-infection, and CFU/eye were quantified. The means were plotted and are representative of 5 to 9 mice per group. Mann Whitney test was performed for each group as compared to the saline control group. *P=0.014. In compound names such as BCC02-5RMP used herein, “R” represents arginine, and “MP” represents a small PEG molecule as defined elsewhere herein (such as, for example but not by way of limitation, “AEEP”).
(§2) A circular wound was created on the mouse cornea by removing the epithelium, and the wound was infected with 10^5 CFU of P. aeruginosa (ATCC® 27853™ (American Type Culture Collection, Manassas, Va.)). Infected wounds were treated with saline or saline containing indicated concentrations (2, 5, 10, and 20 mg/ml) of peptide every 30 minutes for 6 hours on the first day. Infected wounds were treated twice on the second day and once on the third day. Mice were killed at 48 hours post-infection, and the CFU/eye were quantified. The means are plotted and are representative of 5 mice per group. Mann Whitney test was performed for each group as compared to the saline control group. *P=0.015 and **P=0.097.
as §2, with “representative of 4 to 5 mice” for “representative of 5 mice”, “control group.” for “control group. *P=0.015 and **P=0.097.”
as §2, with “group. **P=0.0079 by” for “group.”, “test” for “test was performed for each group”, “group.” for “group. *P=0.015 and **P=0.097.”
A circular wound (2 mm) was created on the mouse cornea by removing the epithelium and infecting the wound with 10^5 CFU of P. aeruginosa (ATCC® 27853™ (American Type Culture Collection, Manassas, Va.)). Infected wounds were treated with saline or saline containing indicated concentrations of peptide every 15 minutes for 2 hours, then every 30 minutes for 3 hours on the first day. […] Mice were killed at 48 hours post-infection, and the colony forming units per eye (CFU/eye) were quantified. […]

(AEEP)-(AEEP)-RRRRGTRCQVAGWGSQRSGGRLSRFPRFVNVR ([PEG2][PEG2]RRRRGTRCQVAGWGSQRSGGRLSRFPRFVNVR) [120-146QR-5RMP]
reduction in CFU [1]: ~6 log
mice with no viable bacteria in the eye after treatment ([2]; the 10 and 20 mg/ml groups together): Six of the 10 mice
CFU/eye vs saline, in words ([2]; topical doses of 10 and 20 mg/ml, 48 hours post-infection): significantly reduced the CFU/eye
